Test results as given in US9963445B2, “Chemical compounds” (SYNGENTA PARTICIPATIONS AG, priority 2013, dated 2018).

Experiments:
Assay type in all cases: in vivo
Abutilon theophrasti [1] = experiment: Pre-emergence herbicidal activity, glasshouse pot test; conditions: pre-emergence spray, rate 1000 g/ha, evaluated after 13 days, scale 0-5
Protocol: (§1) Seeds of a variety of test species were sown in standard soil in pots. After cultivation for one day (pre-emergence) under controlled conditions in a glasshouse (at 24/16° C., day/night; 14 hours light; 65% humidity), the plants were sprayed with an aqueous spray solution derived from the formulation of the technical active ingredient in acetone/water (50:50) solution containing 0.5% Tween 20 (polyoxyethelyene sorbitan monolaurate, CAS RN 9005-64-5). The test plants were then grown in a glasshouse under controlled conditions (at 24/16° C., day/night; 14 hours light; 65% humidity) and watered twice daily. After 13 days, the test was evaluated (5=total damage to plant; 0=no damage to plant).
(§2) ABUTH=Abutilon theophrasti; SOLNI=Solanum nigrum; AMARE=Amaranthus retroflexus; SETFA=Setaria faberi; ALOMY=Alopecurus myosuroides; ECHCG=Echinochloa crus-galli, ZEAMX=zea mays.

Alopecurus myosuroides [2] = experiment: as above; conditions: pre-emergence spray, rate 1000 g/ha, evaluated after 13 days, scale 0-5
Protocol: as §1, §2

Amaranthus retroflexus [3] = experiment: as above; conditions: pre-emergence spray, rate 1000 g/ha, evaluated after 13 days, scale 0-5
Protocol: as §1, §2

Echinochloa crus-galli [4] = experiment: as above; conditions: pre-emergence spray, rate 1000 g/ha, evaluated after 13 days, scale 0-5
Protocol: as §1, §2

Setaria faberi [5] = experiment: as above; conditions: pre-emergence spray, rate 1000 g/ha, evaluated after 13 days, scale 0-5
Protocol: as §1, §2

zea mays [6] = experiment: as above; conditions: pre-emergence spray, rate 1000 g/ha, evaluated after 13 days, scale 0-5
Protocol: as §1, §2

Abutilon theophrasti [7] = experiment: Post-emergence herbicidal activity, glasshouse pot test; set-up: key: 0 = no damage to plant, 5 = total damage to plant; conditions: Application post-emergence, rate 1000 g/ha, evaluated after 13 days
Protocol: (§3) Seeds of a variety of test species were sown in standard soil in pots. After 8 days cultivation (post-emergence) under controlled conditions in a glasshouse (at 24/16° C., day/night; 14 hours light; 65% humidity), the plants were sprayed with an aqueous spray solution derived from the formulation of the technical active ingredient in acetone/water (50:50) solution containing 0.5% Tween 20 (polyoxyethelyene sorbitan monolaurate, CAS RN 9005-64-5). The test plants were then grown in a glasshouse under controlled conditions (at 24/16° C., day/night; 14 hours light; 65% humidity) and watered twice daily. After 13 days, the test was evaluated (5=total damage to plant; 0=no damage to plant).
as §2

Amaranthus retroflexus [8] = experiment: as above; set-up: key: 0 = no damage to plant, 5 = total damage to plant; conditions: Application post-emergence, rate 1000 g/ha, evaluated after 13 days
Protocol: as §3, §2

Echinochloa crus-galli [9] = experiment: as above; set-up: key: 0 = no damage to plant, 5 = total damage to plant; conditions: Application post-emergence, rate 1000 g/ha, evaluated after 13 days
Protocol: as §3, §2

Setaria faberi [10] = experiment: as above; set-up: key: 0 = no damage to plant, 5 = total damage to plant; conditions: Application post-emergence, rate 1000 g/ha, evaluated after 13 days
Protocol: as §3, §2

Alopecurus myosuroides [11] = experiment: as above; set-up: key: 0 = no damage to plant, 5 = total damage to plant; conditions: Application post-emergence, rate 1000 g/ha, evaluated after 13 days
Protocol: as §3, §2

zea mays [12] = experiment: as above; set-up: key: 0 = no damage to plant, 5 = total damage to plant; conditions: Application post-emergence, rate 1000 g/ha, evaluated after 13 days
Protocol: as §3, §2

| Compound | ABUTH damage score, application pre-emergence (Abutilon theophrasti [1]) | ALOMY damage score, application pre-emergence (Alopecurus myosuroides [2]) | AMARE damage score, application pre-emergence (Amaranthus retroflexus [3]) | ECHCG damage score, application pre-emergence (Echinochloa crus-galli [4]) | SETFA damage score, application pre-emergence (Setaria faberi [5]) | ZEAMX damage score, application pre-emergence (zea mays [6]) | ABUTH herbicidal damage score (Abutilon theophrasti [7]) | AMARE herbicidal damage score (Amaranthus retroflexus [8]) | ECHCG herbicidal damage score (Echinochloa crus-galli [9]) | SETFA herbicidal damage score (Setaria faberi [10]) | ALOMY herbicidal damage score (Alopecurus myosuroides [11]) | ZEAMX herbicidal damage score (zea mays [12]) |
| --- | --- | --- | --- | --- | --- | --- | --- | --- | --- | --- | --- | --- |
| COC1=C(C)C(O)N(c2cc(C(C)(C)C)ncn2)C1=O (centres unmarked) [CI1] | 5 | 4 | 5 | 4 | 5 | 4 | – | – | – | – | – | – |
| COC1=C(C)C(O)N(c2cc(C(C)C)c(C(=O)NC(C)(C)C)cn2)C1=O (centres unmarked) [AI30] | 5 | – | 5 | – | – | – | 5 | 5 | 5 | 5 | – | – |
| COC1=C(C)C(O)N(c2cc(NC(C)C)ncn2)C1=O (centres unmarked) [CI4, N2-hydroxy-1-[6-(isopropylamino)pyrimidin-4-yl]-4-methoxy-3-methyl-2H-pyrrol-5-one] | 0 | 0 | 0 | 0 | 0 | 0 | – | – | – | – | – | – |
| CC1=C(Cl)C(=O)N(c2cc(C(F)(F)F)c(-c3ccc(Cl)cc3)cn2)C1O (centres unmarked) [AF90] | 0 | – | 2 | 0 | 3 | 0 | 4 | 5 | – | 5 | – | – |
| COC1=C(C)C(O)N(c2cc(C(C)(F)F)ncn2)C1=O (centres unmarked) [CI8] | 5 | 3 | 5 | 4 | 5 | 2 | – | – | – | – | – | – |
| CC1=C(Cl)C(=O)N(c2cc(C(F)(F)F)c(Br)cn2)C1O (centres unmarked) [AF57, 1-[5-bromo-4-(trifluoromethyl)-2-pyridyl]-4-chloro-2-hydroxy-3-methyl-2H-pyrrol-5-one] | 1 | 3 | – | 0 | 0 | 0 | 5 | 5 | 5 | 5 | 5 | 3 |
| COC1=C(C)C(O)N(c2cc(N(C)C)ncn2)C1=O (centres unmarked) [CI9] | 2 | 1 | 3 | 1 | 1 | 0 | – | – | – | – | – | – |
| COC1=C(C)C(O)N(c2cc(C)c(C(=O)NC(C)(C)C)cn2)C1=O (centres unmarked) [AI33] | – | 4 | 5 | 4 | 5 | – | 5 | 5 | 5 | 5 | 5 | 4 |
| 1-(6-chloropyrimidin-4-yl)-2-hydroxy-4-methoxy-3-methyl-2H-pyrrol-5-one [CI2] | 1 | 2 | – | 4 | 4 | 1 | – | – | – | – | – | – |
| CC1=C(Cl)C(=O)N(c2cc(C(C)C)c(Cl)nn2)C1O (centres unmarked) [BF15] | 4 | 4 | 3 | 5 | 5 | 2 | 5 | 5 | – | – | 5 | 3 |
| COC(=O)c1cnc(N2C(=O)C(OC)=C(C)C2O)cc1Cl (centres unmarked) [AI21] | – | 0 | 5 | 0 | 0 | – | 5 | 5 | 3 | 4 | 1 | 1 |
| COC1=C(C)C(O)N(c2cc(C(C)(C)C)c(Cl)nn2)C1=O (centres unmarked) [BI32] | 4 | 4 | 3 | 5 | 5 | 4 | 5 | 5 | – | – | 5 | 4 |
| CC1=C(Cl)C(=O)N(c2cc(Cl)ncn2)C1O (centres unmarked) [CF1] | 1 | 3 | 5 | 4 | 0 | 2 | 0 | – | 4 | 1 | 4 | 1 |
| COC1=C(C)C(O)N(c2cc(C(C)(C)C#N)ncn2)C1=O (centres unmarked) [CI6] | 5 | 3 | 5 | 5 | 5 | 3 | – | – | – | – | – | – |
| COC1=C(C)C(O)N(c2cc(Cl)c(C(=O)NC(C)(C)C)cn2)C1=O (centres unmarked) [AI18] | – | 4 | 5 | 5 | 5 | – | 5 | 5 | 5 | 5 | 5 | 4 |
| COC1=C(C)C(O)N(c2cc(C(C)(C)F)ncn2)C1=O (centres unmarked) [CI7] | 5 | 3 | 5 | 4 | 5 | 1 | – | – | – | – | – | – |
| COC1=C(C)C(O)N(c2cc(C(C)C)c(Cl)nn2)C1=O (centres unmarked) [BI28] | 4 | 4 | 4 | 5 | 5 | 3 | 5 | 5 | – | – | 5 | 3 |
